Oligonucleotides are written 5' to 3', each unit as a sugar letter and its base; * is a phosphorothioate linkage, no mark a phosphodiester; rarer units and linkages stand in square brackets, end groups in braces. Plain capitals give the bases only. d = 2'-deoxy (DNA); m = 2'-O-methyl; r = 2'-OH (RNA)
Assays:
[1] = Serum stability in mouse serum (agarose gel electrophoresis); type: in vitro ADME; details: 37 °C
Procedure: Five microliters of 20 μM cRGD-siEGFR or EGFR siRNA was mixed with 5 μL of mouse serum and incubated at 37 °C for 0, 12, 24, 36 and 48 h. Aliquots were taken at each of the time points and subjected to electrophoresis in 1.2% non-denaturing agarose gels.
(§1) Figure S1. The characterization of cRGD-siEGFR conjugates and silencing efficiency of EGFR siRNA sequences. (A) The identification of cRGD-siEGFR by HPLC-MS. The measured mass of the sense strand conjugated with cRGD is 7923.4 Da (predicted mass is 7921.4 Da). (B) The analysis of purified cRGD-siEGFR with RP-HPLC. The purity of cRGD-siEGFR, calculated by the peak area normalization method, was 88.0%. (C) The serum stability of cRGD-siEGFR and EGFR siRNA sequences. Molecules were incubated in mouse serum at 37°C for the indicated time periods and then analyzed using agarose (1.2%) gel electrophoresis. (D) Gene silencing efficiency. U87MG cells were treated for 48 h with EGFR-targeting siRNAs, complexed with Lipofectamine 2000. The expression level of EGFR mRNA was analyzed by qRT-PCR. * P<0.05 vs. control group, # P<0.05 vs. siNC group, n=3

EGFR mRNA = assay: Gene silencing efficiency of EGFR siRNA sequences complexed with Lipofectamine 2000 (qRT-PCR); type: cell-based, human; details: U87MG cells, 48 h, complexed with Lipofectamine 2000, EGFR mRNA by qRT-PCR, n=3
Procedure: The relative expression level of EGFR mRNA was tested by qRT-PCR.
The qRT-PCR and western blot analysis were conducted as previously described (Liu et al., [2014]).
as §1

## EGFR siRNA-C: Sense 5’mCmAmAAGUGUGUAACGGAmAmUmAdTdT-3’; antisense 5’mUmAmUUCCGUUACACACUmUmUmGdTdT-3’ (sense CAAAGUGUGUAACGGAAUATT; antisense UAUUCCGUUACACACUUUGTT; sugars from the 5' end m3 r13 m3 d2, backbone not given here; further chemistry not fully specified)
[1]; mouse serum, agarose gel electrophoresis
  stability (three 2′-O-Me modifications on both ends of both strands): obviously improved
EGFR mRNA
  silencing efficiency: over 80%

## unmodified RNA oligonucleotides: Sense 5’CAAAGUGUGUAACGGAAUAdTdT-3’; antisense 5’UAUUCCGUUACACACUUUGdTdT-3’ (sense rCrArArArGrUrGrUrGrUrArArCrGrGrArArUrAdTdT; antisense rUrArUrUrCrCrGrUrUrArCrArCrArCrUrUrUrGdTdT)
[1]; 5 μL of 20 μM mixed with 5 μL mouse serum, 24 h, 1.2% non-denaturing agarose gel electrophoresis
  degradation in mouse serum after 24 h: mostly degraded

From PMC8241002, “A tumor-targeting cRGD-EGFR siRNA conjugate and its anti-tumor effect on glioblastoma in vitro and in vivo” (Drug Delivery, 2017)
